This is an account of results in US20030130636A1, “System for improving skin health of absorbent article wearers” (priority 2001, published 2003).

Series [1] has as its system EPIDERM skin culture. In words: MTT assay, viability of EPIDERM skin culture. Format: cell-based, human. Particulars: 0.4% (w/v) in PBS + protease insult, relative to control+control. The source says:
The MTT dye is taken up by the cells. The reduction of the dye as a result of cellular metabolism can be used to measure the cytotoxicity of the test compositions. In order to confirm viability, inserts of the EPIDERM skin culture that have already been subjected to the test compositions and biological insults are removed from their media and are washed consecutively through immersion in three different beakers of PBS. Fresh PBS is used for each test composition or control being evaluated. The PBS is discarded onto paper towel. The EPIDERM skin culture inserts are then patted onto paper towel and placed into the wells of a 24 well plate containing 300 microliters of pre-warmed media. After all of the EPIDERM skin culture inserts are washed, they are transferred to new 24 well plates containing 300 microliters of the MTT reagent. […] The plates are incubated for 2-3 hours in a 37° C., 5% CO2 incubator. After incubation, the EPIDERM skin culture inserts are transferred to 24 well plates and are immersed in 2 milliliters of MTT extraction buffer. The extraction buffer extracts the MTT reagent from the cells. […] The optical density (OD) of the samples is measured at 570 nm using a spectrophotometer. […] This reading is subtracted from a background reading at 650 nm to improve data quality.
For orientation: Tetrazolium dyes change colour on reduction, which living cells bring about.

Series [2] deals with EPIDERM skin culture. In words: EPIDERM skin culture study: IL-1α response to fecal protease (trypsin-chymotrypsin) insult. Format: cell-based, human. The following applies: six hours, one value per set of experiments. On the procedure:
In order to evaluate the efficacy of the skin care solutions of the invention, a human skin culture was selected to model the response of the human epidermis. EPIDERM skin culture is a cornified, air-interfaced human skin culture. EPIDERM skin culture has multiple layers of progressively differentiated keratinocytes resembling human epidermis. EPIDERM EPI-200 skin culture can be purchased from MatTek Corporation of Ashland, MA. Experiments using EPIDERM skin culture are conducted in six well plates. Each well contains one milliliter of pre-warmed media that is the same as the EPIDERM skin culture media. The plates are then incubated in a 37° C., 5% CO2 incubator for thirty minutes. […]
After application of the insult solution, the well plates are incubated for six hours in the 37° C., 5% CO2 incubator. […] The response of the EPIDERM skin culture to the test compositions/control and the insult solution is determined by measuring the amount of interleukin-1 alpha (hereinafter “IL-1α”). Interleukin-1 alpha can be quantified using an Interleukin-1 alpha Quantikine Kit available from R&D Systems of Minneapolis, Minnesota. Interleukin-1 alpha measurements are converted to Loges for each of the treatments and the averages for each treatment are calculated. […]
(Test composition+insult) result=the measured amount of IL-1α from treatment with a test composition+protease insult. […]

Values joined by “and” are separate entries in the source; they are usually repeats but may differ in a detail not shown here. Equal values may be shown once.

Regarding `O=C(O[C@@H]1Cc2c(O)cc(O)cc2O[C@@H]1c1cc(O)c(O)c(O)c1)c1cc(O)c(O)c(O)c1` [Epigallocatechin gallate], the “Viability (percentage)” value in the series on EPIDERM skin culture [1] was 103% and 101% and 112%.

Take `[Cl-].[Cl-].[Sr+2]` [Strontium Chloride]: the “Mean Reduction of Interleukin-1 Alpha (percentage)” value was 0% (10) in the series on EPIDERM skin culture [2] (1% in PBS) and 15% (10) in the series with EPIDERM skin culture [2] (10% in PBS).
